“And” between values parts separate entries of the source, which are not always exact repeats. Equal entries are not always repeated.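 Each compound was tested at five concentrations against cells in 96-well plates for 48 hours. GI50 marks 50% less growth. Definition used: TGI = concentration required for complete inhibition of growth.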
Legend:
Assay in all cases: DTP human tumour cell line panel, 48 h
EKVX NSCLC = tested on: EKVX NSCLC
IGROV1 ovarian = tested on: IGROV1 ovarian
MALME-3M melanoma = tested on: MALME-3M melanoma
NCI-H460 lung = tested on: NCI-H460 lung
NCI-H522 lung = tested on: NCI-H522 lung
SF-295 CNS = tested on: SF-295 CNS
SW-620 colon = tested on: SW-620 colon
TK-10 renal = tested on: TK-10 renal
UO-31 renal = tested on: UO-31 renal

SMILES	TGI (EKVX NSCLC) [µM]	TGI (IGROV1 ovarian) [µM]	TGI (MALME-3M melanoma) [µM]	TGI (NCI-H460 lung) [µM]	TGI (NCI-H522 lung) [µM]	TGI (SF-295 CNS) [µM]	TGI (SW-620 colon) [µM]	TGI (TK-10 renal) [µM]	TGI (UO-31 renal) [µM]	GI50 (EKVX NSCLC)	GI50 (IGROV1 ovarian)	GI50 (MALME-3M melanoma) [µM]	GI50 (NCI-H522 lung) [µM]	GI50 (TK-10 renal)	GI50 (UO-31 renal)
Cc1cc(C)n(-c2c(O)ccc(O)c2-n2nc(C)cc2C)n1	> 100	> 100	> 100	> 100	> 100	> 100	> 100	> 100	> 100	–	–	–	–	–	–
CC(=O)Nc1ccc(/C=C/C(=O)c2sc(C(N)=S)nc2C)cc1	> 100	> 100	> 100	> 100	> 100	> 100	> 100	> 100	> 100	–	–	–	–	–	–
Cn1c2cccc3nnc4cccc(c4c32)n1C	> 100	> 100	> 100	> 100	–	> 100	> 100	–	> 100	–	–	–	–	–	–
COC(=O)C1=CC2OC1(C)C1(CC1)C2=O (stereo not given)	29	35.9	27.8	48.4	20.7	34.4	34	–	50	–	–	–	–	–	–
O=C1c2ccccc2C(=O)c2nc(-c3ccccc3)c(-c3ccccc3)nc21	> 100	–	> 100	> 100	> 100	> 100	> 100	> 100	> 100	–	–	–	–	–	–
COC(=O)C(=O)C(C(=O)C(=O)Nc1cc([N+](=O)[O-])ccc1[N+](=O)[O-])c1nc2ccc(C(=O)c3ccccc3)cc2[nH]c1=O (stereo not given)	> 100	> 100	> 100	> 100	70.6	> 100	> 100	–	67.5	–	–	–	–	–	–
COC(=O)[C@@H](C)C[C@H](Cc1ccccc1)NC(=O)c1csc([C@@H](C[C@H](C(C)C)N(C)C(=O)[C@@H](NC(=O)[C@H]2CCCCN2C)C(C)C)OC(C)=O)n1	> 25	> 25	> 25	> 25	0.000897	13.1	> 25	> 25	> 25	0.000617 µM and 0.00356 µM	0.000308 µM and 0.0025 µM	8.67	0.000178	0.0223 µM and 0.0025 µM	0.000932 µM and 0.0025 µM
CCC(=C(c1ccc(OCc2ccccc2)cc1)c1ccc(OCc2ccccc2)cc1)c1ccc(OC)cc1	> 100	> 100	> 100	> 100	> 100	> 100	> 100	> 100	> 100	–	–	–	–	–	–
Cc1ccc(S(=O)(=O)N/N=C(\C(=O)Nc2cccc([N+](=O)[O-])c2)c2nc3ccc([N+](=O)[O-])cc3[nH]c2=O)cc1	> 100	> 100	> 100	> 100	> 100	> 100	> 100	–	> 100	–	–	–	–	–	–
COc1ccc(OC)c2cc(C3(C)SCCCS3)ccc12	> 100	> 100	> 100	> 100	–	> 100	> 100	> 100	> 100	–	–	–	–	–	–
CC1C(=O)N(C)C2(CO)C(=O)O[C@H](C)C12O (stereo not given in full)	> 100	> 100	> 100	–	–	> 100	–	> 100	> 100	–	–	–	–	–	–
Cc1ccc2[nH]c(=O)c(C(C#N)c3ccccc3)nc2c1 (stereo not given)	84	> 100	> 100	> 100	70.7	> 100	> 100	> 100	69.9	–	–	–	–	–	–
CCOC(=O)C1=C(C)N(NC(=O)c2ccccc2)C2(O)CCCC12C(=O)OCC (stereo not given)	> 100	> 100	> 100	> 100	> 100	> 100	> 100	–	> 100	–	–	–	–	–	–
CC1C2=CC=C(O2)C(C)(C)C2=CC=C(O2)C(C)(C)C2=CC=C(O2)C(C)(C)C2=CC=C1O2	> 100	> 100	> 100	> 100	> 100	> 100	> 100	> 100	–	–	–	–	–	–	–
Cc1ccc(C2=NO[C@@H]3C(=O)N(c4ccc(Cc5ccc(N6C(=O)[C@H]7C(c8ccc(C)cc8)=NO[C@H]7C6=O)cc5)cc4)C(=O)[C@H]23)cc1	> 100	> 100	> 100	> 100	–	> 100	> 100	> 100	> 100	–	–	–	–	–	–
O=C(NCC#CCO)C(F)(F)F	> 100	> 100	> 100	> 100	> 100	–	> 100	> 100	> 100	–	–	–	–	–	–
O=C(CC1(O)C(=O)Nc2c(Cl)cc(Cl)cc21)c1ccc2ccccc2c1 (stereo not given)	23.4	23.1	19.7	18.1	10.9	21.3	14.7	27.9	24.5	–	–	–	–	–	–
